According to patent publication US20200316067A1, “COMBINATION OF RAF INHIBITORS AND TAXANES” (DOT Therapeutics-1, Inc., priority 2014, published 2020):

Experiments:
[1] = test system: N-Ras mutated SK-MEL-2 human melanoma xenograft; assay: In vivo tumor efficacy, N-Ras mutated SK-MEL-2 human melanoma xenograft model; set-up: species or system Mouse (Mus musculus) Athymic NCr-nu/nu; details: Day 20
[2] = Body weight loss in the SK-MEL-2 xenograft study; assay type: in vivo, Mouse (Mus musculus) Athymic NCr-nu/nu
Method: Tumor size and body weight were measured BIW beginning on the first day of treatment. Animals were terminated when their tumor reached approximately 2000 mm^3, and the study was terminated on Day 62 post treatment initiation.

[3] = test system: Calu-6 lung cancer model (KRAS Q61K); assay: In vivo tumor efficacy, KRAS mutated Calu-6 human lung carcinoma model; set-up: species or system Mouse (Mus musculus) Athymic Balb/c Nude; details: for TGI: Day 21
[4] = Body weight loss in the Calu-6 xenograft study; assay type: in vivo, Mouse (Mus musculus) Athymic Balb/c Nude
Method: Each animal was inoculated with 2×10^6 Calu-6 tumor cells (in 0.1 mL, 1:1 with Matrigel) at the right flank for tumor model development. Body weight and the tumor growth were monitored twice weekly. Tumor size was measured to the nearest 0.1 mm using vernier caliper and applying the formula V=W^2×L/2, where V=volume, W=width, and L=length for the tumor xenograft. Xenografts were allowed to grow until they reached an average size of approximately 220 mm^3 after 14 days.
Tumor size and body weight were measured twice weekly beginning on the day of animal grouping. The study was terminated on Day 35 post treatment initiation.

[5] = test system: tumor cells with N-Ras mutation and K-Ras mutation, B-Raf wild type genetic background; assay: Activity against tumor cells with MAPK pathway activation by upstream signaling; assay type: cell-based
[6] = test system: melanoma tumor cells which developed resistance to vemurafenib; assay: Activity against vemurafenib-resistant melanoma tumor cells; assay type: cell-based
[7] = Compound A 12.5 mg/kg PO QD Days 1-21

C[C@@H](NC(=O)c1ncnc(N)c1Cl)c1ncc(C(=O)Nc2cc(C(F)(F)F)c(Cl)cn2)s1 [Compound A, (R)-2-(1-(6-amino-5-chloropyrimidine-4-carboxamide)ethyl)-N-(5-chloro-4-(trifluoromethyl)pyridin-2-yl)thiazole-5-carboxamide]
TGI ([1]; Compound A 50 mg/kg PO BIW): 62.9%
Mean Maximum BWL ([2]; Compound A 12.5 mg/kg PO QD Days 0-20, Days 3 and 10): 1% (Days 3
Mean Maximum BWL ([2]; Compound A 50 mg/kg PO BIW, Day 17): 4% (Day 17)
ΔAUC [3, 7]: 55.4
TGI [3, 7]: 58.9%
ΔAUC ([3]; Compound A 50 mg/kg PO BIW): 62.7
TGI ([3]; Compound A 50 mg/kg PO BIW): 59.4%
Mean Maximum % BWL ([4]; Compound A 12.5 mg/kg PO QD, Day 0 to Day 21): 0%
Mean Maximum % BWL ([4]; Compound A 50 mg/kg PO BIW, Day 7): −0.1% (Day 7)
activity against tumor cells [5]: active
activity against tumor cells [6]: active

CC(=O)O[C@@]12CO[C@@H]1C[C@H](O)[C@@]1(C)C(=O)[C@H](O)C3=C(C)[C@@H](OC(=O)[C@H](O)[C@@H](NC(=O)OC(C)(C)C)c4ccccc4)C[C@@](O)([C@@H](OC(=O)c4ccccc4)[C@H]21)C3(C)C [docetaxel, reference compound]
TGI ([1]; docetaxel 7.5 mg/kg IV QW): 74.9%
Mean Maximum BWL ([2]; docetaxel 7.5 mg/kg IV QW, Day 14): 15% (Day 14)
ΔAUC ([3]; docetaxel 5 mg/kg IV QW): 9.0
TGI ([3]; docetaxel 5 mg/kg IV QW): 5.2%
ΔAUC ([3]; docetaxel 7.5 mg/kg IV QW): 18.4
TGI ([3]; docetaxel 7.5 mg/kg IV QW): 17.7%
Mean Maximum % BWL ([4]; docetaxel 5 mg/kg IV QW, Day 0 to Day 21): 0%
Mean Maximum % BWL ([4]; docetaxel 7.5 mg/kg IV QW, Day 21): 2.5% (Day 21)
